Measured values from paper PMC8162404, “Proteomimetic surface fragments distinguish targets by function” (Chemical Science, 2020).

Key:
[1] = target: T1, CaM (Bos taurus, UniProt P62157); test: Pull-down assay with immobilized protein and LSM libraries; format: binding, bovine; settings: H14 library; 1:2 stoichiometry assumed; read-out: Surface mapping KD (apparent)
T1 construct: made in house; host or cells: E. coli BL21 (DE3)
In short: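 His-tagged protein immobilized on Co-NTA resin, equilibrated 30 min at room temperature with LSM sublibraries (64 members, […]), equimolar protein to total probe. CaM buffer: 20 mM HEPES pH 7.4, 150 mM NaCl, 5 mM CaCl2. Bound fractions from HPLC-MS loss of unbound probe versus protein-free resin control; Kd derived.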

[2] = target: T2, RecQ-WH (Escherichia coli, UniProt P15043); test: as above; design: species or system E. coli; settings: H14 library; 1:1 binding assumed; read-out: Surface mapping KD (apparent)
T2 construct: coding for residues 408– 523 of E. coli RecQ; made in house; host or cells: E. coli BL21(DE3)
T2 sequence (P15043 408-523): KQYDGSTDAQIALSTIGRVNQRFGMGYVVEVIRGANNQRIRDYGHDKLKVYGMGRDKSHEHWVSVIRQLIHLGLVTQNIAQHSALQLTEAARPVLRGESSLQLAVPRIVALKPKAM
Method: Pull-down assays with immobilized test proteins and foldameric LSM libraries were carried out. Proteins were equilibrated with LSM probes, and equilibrium bound fractions (FB) were determined from the unbound fractions measured by HPLC-MS methods. Hits were corrected with background binding of the resin. The protocol allowed all binding events to equilibrate irrespective of affinity, specificity, and binding kinetics. This was essential to judge overall druggability and promiscuity. Importantly, the concentration of protein and the total concentration of foldameric LSMs were equimolar, which minimized competition between the probes. This experimental setup approximated independent binding of individual library members. Results were visualized as heat maps of dissociation constants (Fig. 3).
Pull-down assay and data analysis
Pull-down assay. LSM sublibraries were screened separately as previously described.(2) Experiments were performed in the following buffers: (i) 20 mM pH 7.4 HEPES, 150 mM NaCl, 5 mM CaCl2 for CaM; (ii) 50 mM pH 7.4 HEPES, 150 mM NaCl, 1 mM TCEP, 1 mM CaCl2 for S100 proteins; (iii) 20 mM pH 7.4 HEPES, 150 mM NaCl, 1 mM TCEP for Gal-1 and (iv) 20 mM pH 7.4 HEPES, 150 mM NaCl for RecQ-WH. Assays were performed in paper filter spin cups (Thermo Scientific) with sample volumes of 100 µl. Hexahistidine-tagged proteins were immobilized on previously washed Co-NTA resin (TALON, Takara Bio USA, Inc., Mountain View, CA) in 64 µM final concentration. LSM sublibrary was added, in which each of the 64 library members were used at a concentration of 1 µM. Samples were incubated at room temperature for 30 min with shaking at 100 rpm. Then, samples were centrifuged at 1000 rpm for 2 min and washed with 100 µl pull-down buffer to remove unbound compounds.
The control experiments were performed using the same compounds and the resin but without the immobilized protein. In case of competitive assays, competitor peptides were added to LSM sublibrary samples in 200 µM final concentration. In the case of Gal-1, lactose (competitor) was used in a concentration of 10 mM. Experiments were performed at least twice. Mean […]
LC-MS methods and parameters. HPLC/ESI-MS analysis was used to characterize the samples from the pull-down assay. LC-MS analysis was performed with a Thermo Scientific Dionex UltiMate 3000 HPLC system interfaced to an LTQ ion trap mass spectrometer (Thermo Electron Corp., San Jose, CA, USA). Samples were injected onto an Aeris Widepore XB-C18 (250 x 4.6 mm) analytical HPLC column using gradient elution 5-80 % solution B during 25 minutes. For pull-down samples, eluent composition was 0.1% acetic acid in distilled water (Solution A) and 0.1% acetic acid in acetonitrile (solution B). Mass spectra were acquired in full scan mode from 200 to 2000 m/z range. For overlapping peaks, selective reaction monitoring (SRM) was […]
MS data analysis. Thermo Xcalibur 2.2 software was used for peak identification and integration. The majority of the foldameric fragments could be resolved independently via HPLC-MS/MS measurements based on molecular weight, MS fragmentation pattern and retention time. Peaks of some foldamers with β3-hIle or β3-hLeu in position R2 could not be resolved, these were integrated and averaged. In the processing method, each sample component was associated to a chromatographic peak based on previously identified mass (m/z) and retention time (ref (2) and Table S7-10). Using ICIS peak detection algorithm, the general detection and integration criteria were: smoothing points: 5, baseline window: 80, area noise factor: 5, peak noise factor: 10. Using these processing setups, all raw data files were reprocessed together and analyzed. Errors in peak identification during the automatic processing were corrected manually.
Calculation of the discussed parameters
1. Bound fractions (FB.) were calculated from the HPLC-MS intensity loss of the LSM probes compared to the control where no protein was immobilized to the resin: […]

[3] = target: T3, S100B (Homo sapiens, UniProt P04271); test: as above; format: binding; settings: H14 library; 1:1 binding assumed; read-out: Surface mapping KD (apparent)
T3 construct: made in house; host or cells: Escherichia coli BL21(DE3)
T3 sequence (P04271 1-92): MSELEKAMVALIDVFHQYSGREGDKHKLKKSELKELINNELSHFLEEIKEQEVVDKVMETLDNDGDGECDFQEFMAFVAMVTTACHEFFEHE
In short: (§1)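 Buffers were HEPES pH 7.4 with 150 mM NaCl, plus 1 mM TCEP and 1 mM CaCl2 (50 mM HEPES) for S100A4 and S100B, 1 mM TCEP for Gal-1, and no additive for RecQ-WH. Immobilized protein at 64 µM was equilibrated 30 min with the LSM sublibrary, and unbound probes were measured by LC-MS.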

[4] = target: T1, CaM; test: Competition pull-down with native ligand TRPV1-Ct15; format: binding, bovine; settings: H14 library; competitor peptide 200 µM; read-out: Surface mapping KD (apparent), competition
[5] = target: T4, Gal-1 (Homo sapiens, UniProt P09382); test: Competition pull-down with lactose; format: binding; settings: H14 library; lactose 10 mM; read-out: Surface mapping KD (apparent), competition
T4 construct: made in house; host or cells: E. coli BL21(DE3)
T4 sequence (P09382 whole entry): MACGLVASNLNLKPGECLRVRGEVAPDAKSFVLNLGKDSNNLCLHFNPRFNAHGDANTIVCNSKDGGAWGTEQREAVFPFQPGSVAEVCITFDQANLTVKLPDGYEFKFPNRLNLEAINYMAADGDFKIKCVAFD
In short: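 His6-tagged proteins immobilized on Co-NTA resin at 64 µM final with 64-member LSM foldamer sublibraries (1 M each, as printed) in pH 7.4 HEPES/NaCl buffers (Ca2+/TCEP per target), 30 min RT; competitor peptides 200 µM final, lactose 10 mM for Gal-1. Bound fractions from LC-MS loss vs protein-free resin; KD assuming 1:1 binding.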

[6] = target: T3, S100B; test: Competition pull-down with native ligand RSK1 (689–735); format: binding; settings: H14 library; competitor peptide 200 µM; read-out: Surface mapping KD (apparent), competition
[7] = target: T4, Gal-1; test: Pull-down assay with immobilized protein and LSM libraries; format: binding; settings: H14 library; 1:1 binding assumed; read-out: Surface mapping KD (apparent)
In short: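 His-tagged protein immobilized on Co-NTA resin (64 µM) in 20 mM HEPES pH 7.4, 150 mM NaCl, equilibrated 30 min at room temperature with foldamer LSM sublibraries at equimolar total concentration. Unbound fractions quantified by HPLC-MS versus protein-free resin control; apparent KD assumes 1:1 binding.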

[8] = target: T5, S100A4 (Homo sapiens, UniProt P26447); test: as above; format: binding; settings: H14 library; 1:1 binding assumed; read-out: Surface mapping KD (apparent)
T5 construct: made in house; host or cells: Escherichia coli BL21(DE3)
T5 sequence (P26447 whole entry): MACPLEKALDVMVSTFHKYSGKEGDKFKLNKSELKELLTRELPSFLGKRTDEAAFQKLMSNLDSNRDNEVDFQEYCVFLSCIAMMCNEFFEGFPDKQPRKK
In short: as §1

Structure (SMILES)	Kd [1] [µM]	Kd [2] [µM]	Kd [3] [µM]	Kd [4] [µM]	Kd [5] [µM]	Kd [6] [µM]	Kd [7] [µM]	Kd [8] [µM]
NC(=O)[C@H]1CCCC[C@@H]1NC(=O)C[C@H](CCC(=O)O)NC(=O)[C@H]1CCCC[C@@H]1NC(=O)[C@H]1CCCC[C@@H]1NC(=O)C[C@H](Cc1ccccc1)NC(=O)[C@H]1CCCC[C@@H]1N [H14 FE]	475	328	–	–	–	–	–	–
NCCCC[C@@H](CC(=O)N[C@H]1CCCC[C@@H]1C(=O)N[C@H]1CCCC[C@@H]1C(=O)N[C@H](CC(=O)N[C@H]1CCCC[C@@H]1C(N)=O)Cc1ccc(O)cc1)NC(=O)[C@H]1CCCC[C@@H]1N [H14 KY]	36	407	63	–	–	–	–	–
NC(=O)C[C@@H](CC(=O)N[C@H]1CCCC[C@@H]1C(=O)N[C@H]1CCCC[C@@H]1C(=O)N[C@H](CC(=O)N[C@H]1CCCC[C@@H]1C(N)=O)Cc1ccc(O)cc1)NC(=O)[C@H]1CCCC[C@@H]1N [H14 NY]	109	–	193	270	337	444	210	–
NC(=O)CC[C@@H](CC(=O)N[C@H]1CCCC[C@@H]1C(=O)N[C@H]1CCCC[C@@H]1C(=O)N[C@H](CC(=O)N[C@H]1CCCC[C@@H]1C(N)=O)Cc1ccccc1)NC(=O)[C@H]1CCCC[C@@H]1N [H14 QF]	39	–	83	211	319	425	285	443
NC(=O)CC[C@@H](CC(=O)N[C@H]1CCCC[C@@H]1C(=O)N[C@H]1CCCC[C@@H]1C(=O)N[C@H](CC(=O)N[C@H]1CCCC[C@@H]1C(N)=O)Cc1ccc(O)cc1)NC(=O)[C@H]1CCCC[C@@H]1N [H14 QY]	92	–	166	345	350	188	174	–
N=C(N)NCCC[C@@H](CC(=O)N[C@H]1CCCC[C@@H]1C(=O)N[C@H]1CCCC[C@@H]1C(=O)N[C@@H](CC(=O)O)CC(=O)N[C@H]1CCCC[C@@H]1C(N)=O)NC(=O)[C@H]1CCCC[C@@H]1N [H14 RD]	–	427	–	–	–	–	–	–
N=C(N)NCCC[C@@H](CC(=O)N[C@H]1CCCC[C@@H]1C(=O)N[C@H]1CCCC[C@@H]1C(=O)N[C@@H](CC(N)=O)CC(=O)N[C@H]1CCCC[C@@H]1C(N)=O)NC(=O)[C@H]1CCCC[C@@H]1N [H14 RN]	185	439	212	–	–	–	–	–
N=C(N)NCCC[C@@H](CC(=O)N[C@H]1CCCC[C@@H]1C(=O)N[C@H]1CCCC[C@@H]1C(=O)N[C@@H](CO)CC(=O)N[C@H]1CCCC[C@@H]1C(N)=O)NC(=O)[C@H]1CCCC[C@@H]1N [H14 RS]	155	403	413	–	–	–	–	–
NC(=O)[C@H]1CCCC[C@@H]1NC(=O)C[C@H](Cc1ccc(O)cc1)NC(=O)[C@H]1CCCC[C@@H]1NC(=O)[C@H]1CCCC[C@@H]1NC(=O)C[C@H](CO)NC(=O)[C@H]1CCCC[C@@H]1N [H14 SY]	90	–	225	244	348	109	318	–
